Data set [1] has as its system HCV genotype 1a H77 strain subgenomic luciferase replicon (H1a-luc) in Huh-7 cells. The data set can be described thus: HCV luciferase replicon assay, genotype 1a (H1a-luc). Type of data set: cell-based. Conditions: for FS (1a/1b): EC50 against genotype 1a HCV divided by EC50 against genotype 1b, replicon luciferase assay; for EC50: genotype 1a H77 replicon, Huh-7 (H1a-luc), 72 hours, read-out: EC50 Against Relpicon 1a. As to the method:
(§1) General procedure: The HCV luciferase replicon assay measures the ability of a test compound to inhibit HCV replication in cell culture after 3 days of treatment in a human hepatoma cell line (Huh-7) bearing a HCV replicon containing a luciferase-neomycin phosphotransferase fusion gene. The inhibition of HCV replication was measured by quantification of luciferase protein expression. Briefly, Huh-7 cells containing either the HCV genotype 1a H77 strain or genotype 1b Con1 strain subgenomic luciferase replicon (H1a-luc or Zluc, respectively) were grown in DMEM containing glucose, L-glutamine and sodium pyruvate, 10% fetal bovine serum (FBS), 100 IU/mL penicillin, 100 μg/mL streptomycin, 2 mM GlutaMAX, non-essential amino acids and 0.25 (H1a-luc) or 0.5 (Zluc) mg/mL G418. GlutaMAX was obtained from Invitrogen, Corp.; all other media reagents were obtained from Mediatech, Inc. For dose-response testing, the cells were seeded in 96-well plates at 1×10^4 (H1a-luc) or 7.5×10^3 (Zluc) cells/well in a volume of 50 μL and incubated at 37° C./5% CO2. Three hours after plating, 50 μL of ten 5-fold serial dilutions of compound were added, and cell cultures were incubated at 37° C./5% CO2 for 72 hours. In all cases, Huh-7 cells lacking the HCV replicon served as negative control. To assess luciferase expression, the media/compound was removed from the plates and ONE-glo Luciferase assay reagent (Promega) was added to each well. The assay plates were shaken for 3 minutes at room temperature and luciferase activity for each well was measured with a 1 sec read time on the Victor^3V multilabel counter using a 700 nm cut-off filter (Perkin Elmer). EC50 values were calculated from dose response curves from the resulting best-fit equations determined by Microsoft Excel and XLfit 4.1 software.

Data set [2] relates to HCV genotype 1b Con1 strain subgenomic luciferase replicon (Zluc) in Huh-7 cells. Put plainly: HCV luciferase replicon assay, genotype 1b (Zluc). The data set is classed as cell-based. Conditions: genotype 1b Con1 replicon, Huh-7 (Zluc), 72 hours, read-out: EC50 Against Relpicon 1b. As to the method: as §1
For orientation: In antiviral work, replicon cells carry a viral genome segment that copies itself.

Another data set has as its target T1, HCV NS3-NS4A protease 1b (Hepatitis C virus genotype 1b, UniProt Q9WMX2).
T1 construct: HCV NS3-NS4A protease, which was produced according to the method of Taremi et al; made in house
The data set can be described thus: HCV protease assay (FRET peptide), genotype 1b. The data set is classed as biochemical. How it is done:
(§2) General procedure: Measurement of the inhibitory effect of compounds on HCV protease activity was performed using the HiLyte Fluor™ TR/QXL™ 610 FRET peptide from AnaSpec, Inc. (San Jose, Calif.) under conditions developed in-house using 2-3 nM HCV NS3-NS4A protease, which was produced according to the method of Taremi et al. (Protein Science, 1998, 7, 2143-2149). The compounds were tested at a variety of concentrations in assay buffer containing a final DMSO concentration of 5%. Reactions were allowed to proceed for 60 min at 30° C. and fluorescence measurements were recorded with a PerkinElmer Victor^3 V 1420 Multilabel Counter. The IC50 values were determined from the percent inhibition versus concentration data using a sigmoidal non-linear regression analysis based on four parameters with XLfit 4.1 software.

A further data set deals with Zluc cells. Put plainly: Cytotoxicity evaluation, Cell Titer 96 AQueous One Solution. The data set is classed as cell-based, human. Conditions: cellular viability. How it is done: (§3) For cytotoxicity evaluation, Zluc cells were treated with compounds as described above and cellular viability was monitored using the Cell Titer 96 AQueous One Solution Cell Proliferation Assay (Promega). Plates were then read at 490 nm in a Victor^3V 1420 multilabel counter (Perkin Elmer) and CC50 concentrations were determined using Microsoft Excel and XLfit 4.1 software.

In data set [3] the test system is genotype 1b HCV replicon in Zluc cells. The data set can be described thus: Genotype 1b HCV replicon luciferase assay with 10% FCS or 45% human serum. Type of data set: cell-based. The following applies: EC50 in presence of 45% HS divided by EC50 in presence of 10% FCS. As to the method: as §1
In Table 1, the values of FS with 45% HS were determined using the genotype 1b HCV replicon luciferase screening assay using Zluc cells, except that activity in the presence of 10% fetal calf serum (FCS) or 45% human serum (HS) was determined in parallel. The fold shift (FS) with 45% HS is the EC50 value in the presence of 45% HS divided by the EC50 value in the presence of 10% FCS. FS (1a/1b) is the EC50 value against genotype 1a HCV divided by the EC50 value against the genotype 1b in the replicon luciferase screening assay.

The target in the next data set is T2, HCV NS3-NS4A protease 6a (Hepatitis C virus genotype 6a, UniProt O39927).
T2 construct: HCV NS3-NS4A protease, which was produced according to the method of Taremi et al; made in house
T2 sequence (O39927 1031-1212): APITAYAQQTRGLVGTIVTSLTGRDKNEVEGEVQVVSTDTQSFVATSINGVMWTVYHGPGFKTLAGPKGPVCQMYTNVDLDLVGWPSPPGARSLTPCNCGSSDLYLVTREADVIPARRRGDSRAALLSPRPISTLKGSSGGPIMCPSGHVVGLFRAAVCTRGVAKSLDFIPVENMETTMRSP
T2 sequence (O39927 1662-1715): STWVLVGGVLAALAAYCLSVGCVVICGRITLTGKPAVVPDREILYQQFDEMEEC
The data set can be described thus: HCV protease assay (FRET peptide), genotype 6a. Type of data set: biochemical. The following applies: genotype 6a protease; 60 min at 30° C.; read-out: IC50 Against HS3/4A 6a. How it is done:
as §2

The next data set deals with T3, HCV NS3-NS4A protease 2a (Hepatitis C virus genotype 2a, UniProt Q99IB8).
T3 construct: HCV NS3-NS4A protease, which was produced according to the method of Taremi et al; made in house
T3 sequence (Q99IB8 1662-1715): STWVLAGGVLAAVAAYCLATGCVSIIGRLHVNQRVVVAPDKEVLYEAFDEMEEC
T3 sequence (Q99IB8 1031-1212): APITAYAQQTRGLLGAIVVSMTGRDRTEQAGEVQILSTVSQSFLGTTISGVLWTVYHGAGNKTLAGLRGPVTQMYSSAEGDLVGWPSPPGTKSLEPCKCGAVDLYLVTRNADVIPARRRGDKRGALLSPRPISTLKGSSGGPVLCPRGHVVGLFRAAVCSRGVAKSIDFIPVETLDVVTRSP
Put plainly: HCV protease assay (FRET peptide), genotype 2a. The data set is classed as biochemical. Conditions: genotype 2a protease; 60 min at 30° C.; read-out: IC50 Against HS3/4A 2a. How it is done:
as §2

The target in another data set is T4, HCV NS3-NS4A protease 5a (Hepatitis C virus genotype 5a, UniProt O39928).
T4 construct: HCV NS3-NS4A protease, which was produced according to the method of Taremi et al; made in house
T4 sequence (O39928 1659-1712): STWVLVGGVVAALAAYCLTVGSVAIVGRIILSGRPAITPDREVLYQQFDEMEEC
T4 sequence (O39928 1028-1209): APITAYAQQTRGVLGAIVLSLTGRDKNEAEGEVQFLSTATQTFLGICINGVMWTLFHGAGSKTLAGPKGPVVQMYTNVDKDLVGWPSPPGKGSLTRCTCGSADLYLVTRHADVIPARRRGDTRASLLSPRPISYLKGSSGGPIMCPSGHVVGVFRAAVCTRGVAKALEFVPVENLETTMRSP
The data set can be described thus: HCV protease assay (FRET peptide), genotype 5a. The data set is classed as biochemical. Conditions: genotype 5a protease; 60 min at 30° C.; read-out: IC50 Against HS3/4A 5a. How it is done:
as §2

In the next data set the target is T5, HCV NS3-NS4A protease 4a (Hepatitis C virus genotype 4a, UniProt O39929).
T5 construct: HCV NS3-NS4A protease, which was produced according to the method of Taremi et al; made in house
T5 sequence (O39929 1658-1711): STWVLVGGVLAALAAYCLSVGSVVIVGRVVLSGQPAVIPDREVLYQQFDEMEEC
T5 sequence (O39929 1027-1208): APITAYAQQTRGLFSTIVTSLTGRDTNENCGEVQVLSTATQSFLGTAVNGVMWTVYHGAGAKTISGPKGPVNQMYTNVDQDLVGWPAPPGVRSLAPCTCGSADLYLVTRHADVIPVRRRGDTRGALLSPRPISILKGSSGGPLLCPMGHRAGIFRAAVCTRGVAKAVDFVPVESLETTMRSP
Put plainly: HCV protease assay (FRET peptide), genotype 4a. The data set is classed as biochemical. Conditions: genotype 4a protease; 60 min at 30° C.; read-out: IC50 Against HS3/4A 4a. As to the method:
as §2

A short description of data set [4]: Cytotoxicity evaluation, Cell Titer 96 AQueous One Solution. Type of data set: cell-based, human. Conditions: human; Zluc cells, cellular viability. How it is done: as §3
The next data set concerns the target T6, HCV NS3-NS4A protease 1a (Hepatitis C virus genotype 1a, UniProt P27958).
T6 construct: HCV NS3-NS4A protease, which was produced according to the method of Taremi et al; made in house
The data set can be described thus: HCV protease assay (FRET peptide), genotype 1a. The following applies: genotype 1a protease; 60 min at 30° C.; read-out: IC50 Against HS3/4A 1a. Type of data set: biochemical. As to the method:
as §2

For another data set, the target named is T7, HCV NS3-NS4A protease 3a (Hepatitis C virus genotype 3a, UniProt Q81258).
T7 construct: HCV NS3-NS4A protease, which was produced according to the method of Taremi et al; made in house
T7 sequence (Q81258 1664-1717): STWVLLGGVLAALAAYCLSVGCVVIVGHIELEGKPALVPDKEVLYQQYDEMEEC
T7 sequence (Q81258 1033-1214): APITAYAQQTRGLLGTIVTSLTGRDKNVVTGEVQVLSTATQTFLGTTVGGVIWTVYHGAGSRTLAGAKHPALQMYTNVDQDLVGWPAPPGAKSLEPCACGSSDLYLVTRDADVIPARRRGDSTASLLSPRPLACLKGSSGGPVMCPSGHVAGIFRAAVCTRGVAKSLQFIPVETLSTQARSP
The data set can be described thus: HCV protease assay (FRET peptide), genotype 3a. The data set is classed as biochemical. As to the method: as §2

Like-named read-outs stand apart in the source and are kept apart here.

Usually EC50 stands for the concentration at which the effect is half-maximal. As usually defined, the CC50 is the concentration that lowers cell viability or growth by half.

T1 sequence (Q9WMX2 1658-1711): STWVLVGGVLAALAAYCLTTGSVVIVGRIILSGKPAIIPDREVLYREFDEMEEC
T1 sequence (Q9WMX2 1027-1208): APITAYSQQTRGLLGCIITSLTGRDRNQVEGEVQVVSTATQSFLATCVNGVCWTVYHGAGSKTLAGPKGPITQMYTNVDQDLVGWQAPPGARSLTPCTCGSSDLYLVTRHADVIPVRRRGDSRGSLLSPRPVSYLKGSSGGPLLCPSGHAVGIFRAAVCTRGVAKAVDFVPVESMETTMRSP
T6 sequence (P27958 1027-1208): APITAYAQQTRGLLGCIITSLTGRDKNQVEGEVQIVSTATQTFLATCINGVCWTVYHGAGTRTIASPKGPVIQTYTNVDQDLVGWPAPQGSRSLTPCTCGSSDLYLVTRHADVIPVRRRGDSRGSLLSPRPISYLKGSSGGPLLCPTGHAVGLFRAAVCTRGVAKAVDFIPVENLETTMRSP
T6 sequence (P27958 1658-1711): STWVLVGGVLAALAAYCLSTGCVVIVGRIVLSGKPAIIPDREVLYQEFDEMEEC

For “(1R,4R,6R,15R,18S)-1-methyl-cyclopropanesulfonic acid [18-(2,5-diphenyl-thiazol-4-yloxy)-13-methyl-2,14-dioxo-3,13-diaza-tricyclo[13.4.0.0]nonadec-7-ene-4-carbonyl]-amide [Compound D103]”, the “FS (1a/1b)” value in data set [1] is reported as 113. Besides, the EC50 in data set [1] lay within 1 to 10 µM; in data set [2], 0.01 to 0.1 µM. In addition, the IC50 on HCV NS3-NS4A protease 1b (genotype 1b protease, 60 min at 30° C., read-out: IC50 Against HS3/4A 1b) fell in the range of 0.01 to 0.1 µM. For the same molecule, in the data set with Zluc cells, the CC50 is over 10 µM.

Take `C#Cc1csc(-c2cc(O[C@H]3CC[C@H]4C(=O)N(C)CCCC/C=C\[C@@H]5C[C@@]5(C(=O)NS(=O)(=O)C5(C)CC5)NC(=O)[C@@H]4C3)c3ccc(OC)c(C)c3n2)n1` [Compound 17a, (1R,4R,6R,15R,18S)-1-methyl-cyclopropanesulfonic acid {18-[2-(4-ethynyl-thiazol-2-yl)-7-methoxy-8-methyl-quinolin-4-yloxy]-13-methyl-2,14-dioxo-3,13-diaza-tricyclo[13.4.0.0]nonadec-7-ene-4-carbonyl}-amide, reference compound]: in data set [3], the “FS with 45% HS” value is on record as 29. The IC50 on HCV NS3-NS4A protease 6a, on HCV NS3-NS4A protease 2a, on HCV NS3-NS4A protease 5a, on HCV NS3-NS4A protease 4a, against HCV NS3-NS4A protease 1b and at HCV NS3-NS4A protease 1a was under 0.01 µM in each case. The same molecule came in with an IC50 against HCV NS3-NS4A protease 3a of 0.01 to 0.1 µM. The “FS (1a/1b)” value in [1] was found to be 8. For the same molecule, the EC50 in data set [1] (Hepatitis C virus) and in data set [2] (Hepatitis C virus) was under 0.01 µM in each case. In addition, the CC50 in data set [4] is over 10 µM.

On to `COc1ccc2c(O[C@H]3CC[C@H]4C(=O)N(C)CCCC/C=C\[C@@H]5C[C@@]5(C(=O)NS(=O)(=O)C5(C)CC5)NC(=O)[C@@H]4C3)cc(-c3nc(C(F)(F)F)cs3)nc2c1C` [Compound 17b, (1R,4R,6R,15R,18S)-1-methyl-cyclopropanesulfonic acid-{18-[7-methoxy-8-methyl-2-(4-trifluoromethyl-thiazol-2-yl)-quinolin-4-yloxy]-13-methyl-2,14-dioxo-3,13-diaza-tricyclo[13.4.0.0]nonadec-7-ene-4-carbonyl}-amide, reference compound], for which, in [3], the “FS with 45% HS” value stood at 80. Also, the IC50 on HCV NS3-NS4A protease 6a, on HCV NS3-NS4A protease 2a, at HCV NS3-NS4A protease 5a, at HCV NS3-NS4A protease 4a, at HCV NS3-NS4A protease 1b and at HCV NS3-NS4A protease 1a was under 0.01 µM throughout. Also, on HCV NS3-NS4A protease 3a, the IC50 is 0.1 to 1 µM. Also, the “FS (1a/1b)” value in data set [1] is given as 6. For the same molecule, the EC50 in [1] (Hepatitis C virus) and in data set [2] (Hepatitis C virus) was under 0.01 µM each time. Besides, the CC50 in [4] is over 10 µM.

For the origin of these results see patent US9353100B2, “Macrocyclic serine protease inhibitors, pharmaceutical compositions thereof, and their use for treating HCV infections” (Idenix Pharmaceuticals LLC, priority 2011, dated 2016).
